Where two headings read alike, the source gives them in different places.
Key:
[1] = target: T1, delta opioid receptor (Rattus norvegicus, UniProt P33533); assay: Rat Brain Delta Opioid Receptor Binding Assay
T1 construct: from tissue; host or cells: forebrain of male Wistar rats (Charles River)

[2] = target: T2, mu opioid receptor (Rattus norvegicus, UniProt P33535); assay: Rat Brain Mu Opioid Receptor Binding Assay
T2 construct: Following incubation with the mu selective peptide ligand, ˜0.8 nM [^3H]DAMGO; from tissue; host or cells: forebrain of male Wistar rats (Charles River)
T2 sequence (P33535 whole entry): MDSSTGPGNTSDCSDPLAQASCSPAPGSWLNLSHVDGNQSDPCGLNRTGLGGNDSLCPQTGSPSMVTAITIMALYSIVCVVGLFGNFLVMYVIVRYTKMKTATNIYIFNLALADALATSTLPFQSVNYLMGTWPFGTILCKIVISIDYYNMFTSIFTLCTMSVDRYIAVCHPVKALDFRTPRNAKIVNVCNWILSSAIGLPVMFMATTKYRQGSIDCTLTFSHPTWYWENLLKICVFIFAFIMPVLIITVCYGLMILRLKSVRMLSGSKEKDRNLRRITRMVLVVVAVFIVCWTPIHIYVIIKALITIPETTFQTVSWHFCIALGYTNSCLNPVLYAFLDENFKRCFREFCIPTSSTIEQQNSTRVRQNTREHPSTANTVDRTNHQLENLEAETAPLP

[3] = target: T3, delta opioid receptor (Mus musculus, UniProt P32300); assay: [35S]GTPγS Binding Assay in NG108-15 Cell Membranes (Delta Opioid); assay type: biochemical; conditions: for delta GTPgS Rel Eff: relative efficacy
T3 construct: NG108-15 cell membranes were purchased from Applied Cell Sciences (Rockville, Md.); host or cells: NG108-15 cell membranes (purchased)
T3 sequence (P32300 whole entry): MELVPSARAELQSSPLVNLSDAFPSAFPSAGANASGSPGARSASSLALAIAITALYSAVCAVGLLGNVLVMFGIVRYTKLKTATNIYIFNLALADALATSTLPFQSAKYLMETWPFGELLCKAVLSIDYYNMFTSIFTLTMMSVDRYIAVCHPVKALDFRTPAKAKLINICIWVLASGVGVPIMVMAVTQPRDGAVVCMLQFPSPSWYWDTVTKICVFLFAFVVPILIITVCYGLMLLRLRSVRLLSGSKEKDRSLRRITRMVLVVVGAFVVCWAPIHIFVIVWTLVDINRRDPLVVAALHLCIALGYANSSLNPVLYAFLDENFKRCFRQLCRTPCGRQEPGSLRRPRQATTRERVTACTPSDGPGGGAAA
Experimental: Methods: NG108-15 cell membranes were purchased from Applied Cell Sciences (Rockville, Md.). 8 mg/mL of membrane protein suspended in 10 mM TRIS-HCl pH 7.2, 2 mM EDTA, 10% sucrose. Membranes were maintained at 4-8° C. A 1 mL volume of membranes was added into 10 mL cold binding assay buffer. The assay buffer contained 50 mM Tris, pH 7.6, 5 mM MgCl2, 100 mM NaCl, 1 mM DTT and 1 mM EGTA. The membrane suspension was homogenized twice with a Polytron, and centrifuged at 3000 rpm for 10 min. The supernatant was then centrifuged at 18,000 rpm for 20 min. Ten mL assay buffer was added into the pellet containing tube. The pellet and buffer were mixed with a Polytron.
Incubation procedure: The pellet membranes (75 μg/mL) were preincubated with SPA (10 mg/mL) at 25° C. for 45 min in the assay buffer. […] GTPγS in the same Tris buffer containing 100 μM GDP in total volume of 200 μL. Increasing concentrations of receptor agonists were used to stimulate [35S]- GTPγS binding. The basal binding was tested in the absence of agonists and non-specific binding was tested in the presence of 10 μM unlabeled GTPγS. The data were analyzed on a Packard Top Count.
% of Basal=(stimulated−non specific)*100/(basal−non specific). EC50 values were calculated using GraphPad Prism.

[4] = rat forebrain membranes, [3H]DAMGO, read-out: mu (Ki)
[5] = NG108-15 cell membranes, stimulation of [35S]GTPγS binding, read-out: delta GTPgS EC50

T1 sequence (P33533 whole entry): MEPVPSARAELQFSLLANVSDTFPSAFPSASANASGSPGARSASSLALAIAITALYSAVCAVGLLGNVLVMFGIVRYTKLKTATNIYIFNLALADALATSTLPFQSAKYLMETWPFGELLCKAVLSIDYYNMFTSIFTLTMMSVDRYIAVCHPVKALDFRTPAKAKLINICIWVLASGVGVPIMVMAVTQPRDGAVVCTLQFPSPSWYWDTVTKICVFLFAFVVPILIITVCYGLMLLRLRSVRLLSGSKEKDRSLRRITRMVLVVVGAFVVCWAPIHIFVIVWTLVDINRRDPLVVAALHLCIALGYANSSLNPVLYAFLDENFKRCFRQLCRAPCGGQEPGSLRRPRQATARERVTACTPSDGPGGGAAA

| Compound | Ki [1] | Ki [2] | EC50 [3] | delta GTPgS Rel Eff ([3]; NG108-15 cell membranes) | Ki ([1]; rat forebrain membranes, [3H]DPDPE or [3H]naltrindole, read-out: delta (Ki)) | Ki [2, 4] | EC50 [3, 5] |
| --- | --- | --- | --- | --- | --- | --- | --- |
| CCN(CC)C(=O)c1ccc2c(c1)Oc1ccccc1C2C1CC2CCC(C1)N2Cc1cccs1 (stereo not shown) [Compound 14a, 9-(8-Thiophen-2-ylmethyl-8-aza-bicyclo[3.2.1]oct-3-yl)-9H-xanthene-3-carboxylic acid diethylamide] | 18.7 nM | 1650 nM | 96.9 nM | 0.65 |  |  |  |
| CCN(CC)C(=O)c1ccc2c(c1)Oc1c(OC)cccc1C2C1CC2CCC(C1)N2 (stereo not shown) [Compound 7c, 9-(8-Aza-bicyclo[3.2.1]oct-3-yl)-5-methoxy-9H-xanthene-3-carboxylic acid diethylamide] | 3.1 nM | 463 nM | 29.2 nM | 0.80 |  |  |  |
| CCN(CC)C(=O)c1ccc2c(c1)Oc1c(O)cccc1C2C1CC2CCC(C1)N2Cc1ncc[nH]1 (stereo not shown) [Compound 10c, 5-Hydroxy-9-[8-(1H-imidazol-2-ylmethyl)-8-aza-bicyclo[3.2.1]oct-3-yl]-9H-xanthene-3-carboxylic acid diethylamide] | 0.32 nM | 70 nM | 6.4 nM | 0.94 |  |  |  |
| CCN(CC)C(=O)c1ccc2c(c1)Oc1c(O)cccc1C2C1CC2CCC(C1)N2Cc1ccoc1 (stereo not shown) [Compound 9c, 9-(8-Furan-3-ylmethyl-8-aza-bicyclo[3.2.1]oct-3-yl)-5-hydroxy-9H-xanthene-3-carboxylic acid diethylamide] | 0.73 nM | 73 nM | 4.6 nM | 1.02 |  |  |  |
| CCN(CC)C(=O)c1ccc2c(c1)Oc1c(O)cccc1C2C1CC2CCC(C1)N2 (stereo not shown) [Compound 8c, 9-(8-Aza-bicyclo[3.2.1]oct-3-yl)-5-hydroxy-9H-xanthene-3-carboxylic acid diethylamide] | 1.29 nM | 75 nM | 5 nM | 0.85 |  |  |  |
| CCN(CC)C(=O)c1ccc2c(c1)Oc1ccccc1C2C1CC2CCC(C1)N2Cc1ccccc1 (stereo not shown) [Compound 11a, 9-(8-Benzyl-8-aza-bicyclo[3.2.1]oct-3-yl)-9H-xanthene-3-carboxylic acid diethylamide] | 19.9 nM | 1120 nM | 118 nM | 0.78 |  |  |  |
| 9-(8-Furan-3-ylmethyl-8-aza-bicyclo[3.2.1]oct-3-ylidene)-9H-xanthene-3-carboxylic acid diethylamide [Compound 10a] |  |  |  | 0.75 | 12.3 nM | 546 nM | 21.1 nM |
| CCN(CC)C(=O)c1ccc2c(c1)Oc1ccccc1C2C1CC2CCC(C1)N2Cc1ccccn1 (stereo not shown) [Compound 15a, 9-(8-Pyridin-2-ylmethyl-8-aza-bicyclo[3.2.1]oct-3-yl)-9H-xanthene-3-carboxylic acid diethylamide] | 11.1 nM |  |  |  |  | 1410 nM | 155 nM |
